Source: patent US20250320250A1, “PHARMACEUTICAL COMPOSITIONS FOR THE TREATMENT OF VISCERAL PAIN” (Ironwood Pharmaceuticals, Inc., priority 2021, published 2025)

Tested on: visceral hypersensitivity and bladder dysfunction
Experiment: Nonclinical pharmacology models of visceral hypersensitivity and bladder dysfunction
Assay type: in vivo
Details: doses above 10 μg/kg/day
Method: The peptide of the present disclosure doses of 100 μg and 300 μg were selected based on nonclinical pharmacology models of visceral hypersensitivity and bladder dysfunction using the peptide of the present disclosure and another GC-C agonist, linaclotide, with similar activity. […] The human equivalent daily dose (HED) extrapolated from pharmacologically active dose levels in nonclinical models is 180 μg to 600 μg (based on body weight) and 15 μg to 100 μg based on body surface area. Choosing 2 doses for investigation in this study should allow for observation of a dose response.

With “peptide of the present disclosure: GC-C agonist peptide, active pharmaceutical ingredient of the rectal foam composition (CXELCCNVACYGC; not fully specified; SITE 2 X is a homocysteine contributing to a cystathionine unit (linking the homocysteine at residue 2 and cysteine at residue 10 via a thioether bond); DISULFID 1..6 Intrachain; DISULFID 5..13 Intrachain; CROSSLNK 2..10 homocysteine at position 2 and the cysteine at position 10 are connected by an internal sulfide (or thioether bond); SITE 1 Optionally acetylated N-terminus)” as the substance, how does the “benefit at higher doses” value read?
The value was “diminishing benefit”.
